Source: patent US7482472B2, “Substituted isoindoles and their use” (Bayer Healthcare AG, priority 2002, dated 2009)
Where a name gives a salt, the structure may show the parent alone.

SMILES	melting point
O=C(Nc1cccc2c1C(=O)N(CCC(=O)N1CCN(c3ccncc3)CC1)C2)c1ccc(Cl)s1 (as salt: TFA) [Example 88]	118 °C
O=C(Nc1cccc2c1C(=O)N(CCC(=O)N1CCN(c3ccncc3)CC1)C2=O)c1ccc(Cl)s1 [Example 5, 5-Chloro-N-(1,3-dioxo-2-{3-oxo-3-[4-(4-pyridinyl)piperazino]propyl}-2,3-dihydro-1H-isoindol-4-yl)-2-thiophenecarboxamide]	167 °C
Cc1cccc(N2CCN(C(=O)CN3C(=O)c4cccc(NC(=O)c5ccc(Cl)s5)c4C3=O)CC2)c1 [Example 8]	136 °C
N#Cc1ccc(N2CCN(C(=O)CN3C(=O)c4cccc(NC(=O)c5ccc(Cl)s5)c4C3=O)CC2)nc1 [Example 9]	169 °C (dec.)
O=C(Nc1cccc2c1C(=O)N(CC(=O)N1CCN(c3cccc4[nH]ccc34)CC1)C2=O)c1ccc(Cl)s1 [Example 10]	209 °C
O=C(Nc1cccc2c1C(=O)N(CC(=O)N1CCN(c3ncnc4sccc34)CC1)C2=O)c1ccc(Cl)s1 [Example 12]	277 °C
N#Cc1nccnc1N1CCN(C(=O)CN2C(=O)c3cccc(NC(=O)c4ccc(Cl)s4)c3C2=O)CC1 [Example 13]	242 °C
Cc1cccc(N2CCN(C(=O)CN3C(=O)c4cccc(NC(=O)c5ccc(Cl)s5)c4C3=O)CC2)n1 [Example 14]	241 °C
O=C(Nc1cccc2c1C(=O)N(CC(=O)N1CCN(CCCN3CCCCC3)CC1)C2=O)c1ccc(Cl)s1 [Example 20]	104 °C
O=C(Nc1cccc2c1C(=O)N(CC(=O)N1CCN(CC(=O)N3CCOCC3)CC1)C2=O)c1ccc(Cl)s1 [Example 21]	230 °C
Nc1cnccc1N1CCN(C(=O)CN2C(=O)c3cccc(NC(=O)c4ccc(Cl)s4)c3C2=O)CC1 [Example 27]	178 °C
O=C(Nc1cccc2c1C(=O)N(CC(=O)N1CCN(c3ccc4c(c3)OCO4)CC1)C2=O)c1ccc(Cl)s1 [Example 32]	203 °C
O=C(Nc1cccc2c1C(=O)N(C1CCN(c3ccncc3)CC1)C2=O)c1ccc(Cl)s1 [Example 63, 5-Chloro-N-{1,3-dioxo-2-[1-(4-pyridinyl)-4-piperidinyl]-2,3-dihydro-1H-isoindol-4-yl}-2-thiophenecarboxamide]	214 °C

More lines, now with the values ahead:

melting point	SMILES
237 °C	O=C(Nc1cccc2c1C(=O)N(CC(=O)N1CCN(c3cnccn3)CC1)C2=O)c1ccc(Cl)s1 [Example 6]
203 °C	O=C(Nc1cccc2c1C(=O)N(CC(=O)N1CCN(c3ccccn3)CC1)C2=O)c1ccc(Cl)s1 [Example 7]
124 °C	CC(C)NC(=O)CN1CCN(C(=O)CN2C(=O)c3cccc(NC(=O)c4ccc(Cl)s4)c3C2=O)CC1 [Example 16]
189 °C	CN(C)C(=O)CN1CCN(C(=O)CN2C(=O)c3cccc(NC(=O)c4ccc(Cl)s4)c3C2=O)CC1 [Example 17]
122 °C	O=C(Nc1cccc2c1C(=O)N(CC(=O)N1CCN(CC(=O)N3CCCC3)CC1)C2=O)c1ccc(Cl)s1 [Example 19]
158 °C	COCCN1CCN(C(=O)CN2C(=O)c3cccc(NC(=O)c4ccc(Cl)s4)c3C2=O)CC1 [Example 22]
220 °C	O=C(Nc1cccc2c1C(=O)N(CC(=O)N1CCC(NCc3cccnc3)CC1)C2=O)c1ccc(Cl)s1 [Example 24]
256 °C	O=C(CN1C(=O)c2cccc(NC(=O)c3ccc(Cl)s3)c2C1=O)NCC1CCN(c2ccncc2)CC1 [Example 28]
198 °C	O=C(Nc1cccc2c1C(=O)N(CC(=O)N1CCC(CO)CC1)C2=O)c1ccc(Cl)s1 [Example 36, 5-Chloro-N-(2-{2-[4-(hydroxymethyl)piperidino]-2-oxoethyl}-1,3-dioxo-2,3-dihydro-1H-isoindol-4-yl)-2-thiophenecarboxamide]
233 °C	O=C(Nc1cccc2c1C(=O)N(CC(=O)N1CCC(CO)CC1)C2O)c1ccc(Cl)s1 (stereo not shown) [Example 89]
234 °C (dec.)	O=C(Nc1cccc2c1C(O)N(CC(=O)N1CCC(CO)CC1)C2=O)c1ccc(Cl)s1 (stereo not shown) [Example 90]
209 °C	O=C(Nc1cccc2c1CN(CC(=O)N1CCC(CO)CC1)C2=O)c1ccc(Cl)s1 [Example 92]
